Assay results reported in patent US20080051454A1, “Compositions and methods for transient receptor potential vanilloid (TRPV) channel mediated treatments” (The Board of Trustees Operating Michigan State University, priority 2006, published 2008).

How the values were obtained:
mesenteric arteries [1] = test: NADA-induced CGRP release from isolated mesenteric arteries (radioimmunoassay); design: species or system rat; settings: CAPZ 10 μM pretreatment, NADA 10 μM; NS or HS
Procedure: After an 1 h stabilization period, the arteries were transferred to another chamber containing 1 ml of Krebs's solution with the addition of 0.05% BSA and drugs including NADA (1 or 10 μM) or CAPZ (10 μM). The tissues were removed after 20 min incubation, and the solutions were collected and evaporated. […] At the end of the experiment, the tissues were blotted and weighted. […] The results are expressed as pg of milligram of tissues.
This antibody has 100% cross-reactivity with rat a-CGRP and 79% with β-CGRP. There is no cross-reactivity with rat amylin, calcitonin, somatostatin, or substance P. The assay was performed following the manufacturer's protocol.

[2] = system: Wistar rats fed a NS or HS diet for 3 weeks; test: MAP and HR responses to bolus CAPZ in conscious rats (3-week diet); type: in vivo, rat; settings: for peak increase in MAP: CAPZ 3 mg/kg bolus, conscious
From the text: Animal Preparation: Experiments were approved by the institutional Animals Care and Use Committee. Male Wistar rats (6 weeks old, Charles River Laboratory, Wilmington, Mass.) were housed in a temperature-controlled room with a 12:12-hour light/dark cycle. Rats were selected randomly to receive either a normal-sodium diet (NS, 0.4% of Na^+ by weight) or a HS diet (HS, 4% of Na^+ by weight) for 3 weeks. The diets were purchased from Harlan Teklad. All rats drank water ad libitum throughout the experiment.
Surgical Preparation The rats were anesthetized with ketamine and xylazine (80 and 4 mg/kg ip, respectively) for implantation of artery and vein catheters. The left jugular vein and carotid artery were cannulated for administration of drugs or for monitoring of mean arterial pressure (MAP) and heart rate (HR) with a Statham 231D pressure transducer coupled to a Gould 2400s recorder (Gould Instruments, Dayton, Ohio, USA). For conscious animal experiments, catheters were routed subcutaneously and exteriorized between the scapulae. Rats were quietly brought to home cages 3 hours after surgery, and MAP and HR were continuously recorded. Regular room light was turned on during experiments. The rats were allowed to acclimate to their surroundings for 15-30 minutes in their cages, i.e., until which time they ceased exploring the new environment and their blood pressures stabilized. Baseline MAP and HR were recorded for 15 minutes before administration of drugs (Supowit et al., 1997; Wang and Wang, 2004).
Protocol 1: To determine whether the TRPV1 is tonically activated during HS intake, rats fed a NS or HS diet were randomly assigned to 2 groups for intravenous injection of CAPZ (3 mg/kg), a selective TRPV1 antagonist, in conscious states.

mesenteric arteries [3] = test: MethA-induced CGRP release from isolated mesenteric arteries (radioimmunoassay); design: species or system rat; settings: CAPZ 10 μM, MethA 10 μM; NS or HS
Procedure: The arteries were dissected free of fat and connective tissues.
The preparations were incubated in a Krebs' solution of the following compositions (in mM): NaCl 119, NaHCO3 25, KH2PO4 1.2, MgSO4 1.5, CaCl2 2.5, KCl 4.7, and D-glucose 11. The Krebs' solution was maintained at 37 °C and gassed with 95% O2 and 5% CO2. After 1 h stabilization period, the arteries were transferred to another chamber containing 1 ml of Krebs' solution with the addition of 0.05% BSA and drugs. […] The tissues were removed after 20 min incubation, and the solutions were collected. At the end of the experiment, the tissues were blotted and weighted.
This antibody has 100% cross-reactivity with rat α-CGRP and 79% with rat β-CGRP. There is no cross-reactivity with rat amylin, calcitonin, somatostatin, or substance P.

renal tissues = test: Capsaicin-induced CGRP release from renal tissues; design: species or system rat; settings: capsazepine 10 mmol/l; all groups
From the text: N¼5,_P<0.05 versus vehicle, capsazepine plus capsaicin and capsazepine; †P<0.001 versus capsaicin of control rats with a normal sodium diet (Con-NS) and capsaicin of control rats with a high sodium diet (Con-HS). Vehicle; capsaicin; capsazepine and capsaicin; capsazepine.
To examine renal sensory nerve function, renal CGRP release after stimulation of the renal sensory nerves with capsaicin was examined.

Structure (SMILES): Oc1cc2c(cc1O)CN(C(=S)NCCc1ccc(Cl)cc1)CCC2 [CAPZ, N-[2-(4-Chlorophenyl)ethyl]-1,3,4,5-tetrahydro-7,8-dihydroxy-2H-2-benzazepine-2-carbothioamide]
- effect on NADA-induced CGRP release (mesenteric arteries [1]): blocked
- peak increase in MAP ([2]; HS 3 weeks): 13±3 mmHg
- peak increase in MAP ([2]; NS 3 weeks): 4±2 mmHg
- duration of pressor action ([2]; CAPZ 3 mg/kg, HS): 6 to 7 min
- time to peak MAP elevation after injection ([2]; CAPZ 3 mg/kg, HS): ≤ 2 min
- change in HR ([2]; CAPZ 3 mg/kg, NS or HS): no significant change
- effect on MethA-induced CGRP release (mesenteric arteries [3]): blocked
- effect on capsaicin-stimulated CGRP release (renal tissues): blocked
